Measured values from patent US20220305015A1, “COMBINATORIAL THERAPY TARGETING PARP1 AND RTK” (Board of Regents, The University of Texas System, priority 2019, published 2022).

What was measured:
BR# 17 cells [1] = assay: BR# 17 orthotopic xenograft mouse model; format: in vivo, mice; details: BR# 17 model; oral gavage daily; olaparib 40, AZD4547 8, talazoparib 0.25, PD173074 15 mg/kg per day
Protocol: (§1) Animal studies were performed following a protocol approved by The University of Texas MD Anderson Cancer Center Institutional Animal Care and Use Committee. Female nude mice were purchased from the Department of Experimental Radiation Oncology at MD Anderson. For BR# 09 and BR# 17 xenograft mouse models, two million cells were mixed with 50% (v/v) growth factor reduced Matrigel matrix (Corning) and inoculated into the mammary fat pads of 6- to 8-week-old female nude mice. For the 4T1 model, female Balb/c mice were purchased from Jackson Laboratory. A total of 50,000 4T1 cells were mixed with Matrigel matrix and inoculated into the mammary fat pad of 6-week-old female Balb/c mice. Inhibitors were dissolved in vehicle solvent containing 10% dimethylacetamide (Sigma-Aldrich), 5% Kolliphor HS 15 (Sigma-Aldrich), and 85% phosphate-buffered saline (Evans et al., 2017). […] Treatment with inhibitors started when tumor volumes reached a mean of 120 mm^3. Mice were treated using oral gavage daily for 20 days followed by 3 days with no drugs to prevent severe weight loss. After the first cycle, treatment was continued on a schedule of 6 days on and 1 day off. Mouse weight and tumor volume were measured three times every week. Tumor volume was estimated using the following formula: volume (mm^3) =length (mm)×width (mm)×0.5 width (mm), where length is the longest axis of the tumor. Mice were euthanized using CO2 when the tumor volume reached 2,000 mm^3. For the blood chemical test, mouse cardiac blood was collected by veterinarians in the Department of Veterinary Medicine and Surgery at MD Anderson after 16 days of treatment. Concentrations of alanine aminotransferase, aspartate aminotransferase, and blood urea nitrogen in Balb/c mice were referred to North American colonies of Charles River Balb/c mice.

[2] = tested on: SUM149-derived talazoparib-resistant (BR) cells; assay: Colony formation assay; format: cell-based; details: colony formation assays; BR cells vs SUM149 parental cells
Protocol: SUM149 cells (600 cells/well), BR# 09 cells (800 cells/well), and BR# 17 cells (1,000 cells/well) were seeded into a 12-well plate 18 hours before treatments. Inhibitor-containing media was refreshed every 2 days. Cells were fixed using 4% paraformaldehyde after 10-14 days of treatment. Colonies were stained with 0.5% crystal violet before plates were imaged, and colony number was quantified using the Celigo imaging cytometer (Nexcelom Bioscience). Cell survival rate was calculated by normalizing the number of colonies in each well to that of the vehicle-treated well on the same culture plate.

BR# 09 cells = assay: BR# 09 orthotopic xenograft mouse model; format: in vivo, mice; details: for tumor growth: BR# 09 model, oral gavage daily, olaparib 40, AZD4547 8, talazoparib 0.25, PD173074 15 mg/kg per day; for talazoparib-induced FGFR phosphorylation in tumors: 3 days
Protocol: as §1

HCC1806-BR cells = assay: MTT assay, survival of HCC1806-BR and HCC1806 parental cells; format: cell-based; details: 6 days of PARPi
Protocol: FIGS. 7A-7B. Activation of FGFR3 in HCC1806-BR cells. […] HCC1806-BR cells were developed by treating HCC1806 cells with […] talazoparib continuously for 9 months. Survival of HCC1806-BR and HCC1806 parental cells in response to talazoparib, olaparib, and rucaparib was measured by exposing cells to various concentrations of the indicated PARPi for 6 days before performing the MTT assay. (FIG. 7B) Antibody arrays of receptor tyrosine kinase activation in HCC1806 parental cells and HCC1806-BR cells. Cells were treated with either dimethyl sulfoxide (DMSO) or talazoparib overnight before being harvested for RTK antibody array analysis. PBS, phosphate-buffered saline.
(§2) Cells were seeded at a concentration of 1,000 cells/well in a 96-well plate and cultured overnight before treatments with inhibitors. Inhibitor-containing media was refreshed every 3 days for a 6-day treatment schedule. Cells were incubated with 0.5 mg/ml thiazolyl blue tetrazolium bromide (Sigma-Aldrich) for 2 hours, and formazan crystals were dissolved using DMSO. Optical density at 565 nm was measured and survival percentages were calculated by normalizing the optical density value of each treatment group to that of the control group, treated with DMSO only. Half-maximal inhibitory concentrations of inhibitors were calculated using the standard curve interpolate function in GraphPad Prism 8.

BR# 17 cells [3] = assay: yH2AX foci immunofluorescence staining after MMS; format: cell-based; details: after MMS removal
Protocol: FIGS. 2A-2C: Inhibition of FGFR3 decreases DNA damage repair. (FIG. 2A) SUM149-derived talazoparib-resistant (BR)# 17 cells were treated for 1 hour with methyl methanesulfonate (MMS), talazoparib (Tala), and PD173074 (PD) as indicated. After MMS removal, cells were cultured for the indicated time before immunofluorescence staining. Representative images of yH2AX (green) and DNA (blue) are shown. […] (FIG. 2B) For comet assay analysis, BR# 09 cells were incubated for another 3 hours after MMS removal. DNA damage was normalized to that of the talazoparib-treated group. Mean ±standard deviation is shown (n >100). (FIG. 2C) Combination index (CI) of talazoparib and PD173074 in BR cells, measured by colony formation assay. Analysis of variance was used for statistical comparisons.
Immunofluorescence staining and confocal microscopy were performed as previously described (Chen, et al., 2019). Cells were treated with DMSO (solvent control), talazoparib (125 nM for BR# 09; 250 nM for BR# 17), PD173074 (10 μM), or the combination of talazoparib and PD173074 for the time indicated. […] In both immunostaining and the proximity ligation assay, images of the cells were captured and analyzed with an LSM 710 laser confocal microscope and Zeiss Zen software (Carl Zeiss) and foci counting was performed using BlobFinder (Allalou and Wahlby, 2020).

[4] = tested on: SUM149-derived talazoparib-resistant (BR) cells; assay: MTT assay, cell survival; format: cell-based; details: for cross-resistance of BR cells to PARPi: talazoparib-resistant BR cells, MTT assay
Protocol: as §2
For Western blot signal quantification, signal intensities were analyzed using Image Studio Lite (version 5.2; LI-COR Biosciences). Signals of PARP1, PARylation, FGFR3, and phosphorylated FGFR were first normalized to house-keeping proteins (tubulin, actin, or GAPDH) of each sample before being normalized to the control groups. Every independent experiment repeat was quantified individually. Fold changes in Western blot signals were analyzed by a nonparametric Friedman test using the GraphPad Prism 8.0 software. A p value of less than 0.05 was considered statistically significant: *p <0.05; **p <0.002; ***p <0.001. Combination index experiments were designed according to the Chou-Talalay method^39, and results were calculated using Compusyn software.

[5] = target: His-tagged PARP1 recombinant protein (UniProt P09874)
His-tagged PARP1 recombinant protein, sequence (P09874 whole entry, looked up): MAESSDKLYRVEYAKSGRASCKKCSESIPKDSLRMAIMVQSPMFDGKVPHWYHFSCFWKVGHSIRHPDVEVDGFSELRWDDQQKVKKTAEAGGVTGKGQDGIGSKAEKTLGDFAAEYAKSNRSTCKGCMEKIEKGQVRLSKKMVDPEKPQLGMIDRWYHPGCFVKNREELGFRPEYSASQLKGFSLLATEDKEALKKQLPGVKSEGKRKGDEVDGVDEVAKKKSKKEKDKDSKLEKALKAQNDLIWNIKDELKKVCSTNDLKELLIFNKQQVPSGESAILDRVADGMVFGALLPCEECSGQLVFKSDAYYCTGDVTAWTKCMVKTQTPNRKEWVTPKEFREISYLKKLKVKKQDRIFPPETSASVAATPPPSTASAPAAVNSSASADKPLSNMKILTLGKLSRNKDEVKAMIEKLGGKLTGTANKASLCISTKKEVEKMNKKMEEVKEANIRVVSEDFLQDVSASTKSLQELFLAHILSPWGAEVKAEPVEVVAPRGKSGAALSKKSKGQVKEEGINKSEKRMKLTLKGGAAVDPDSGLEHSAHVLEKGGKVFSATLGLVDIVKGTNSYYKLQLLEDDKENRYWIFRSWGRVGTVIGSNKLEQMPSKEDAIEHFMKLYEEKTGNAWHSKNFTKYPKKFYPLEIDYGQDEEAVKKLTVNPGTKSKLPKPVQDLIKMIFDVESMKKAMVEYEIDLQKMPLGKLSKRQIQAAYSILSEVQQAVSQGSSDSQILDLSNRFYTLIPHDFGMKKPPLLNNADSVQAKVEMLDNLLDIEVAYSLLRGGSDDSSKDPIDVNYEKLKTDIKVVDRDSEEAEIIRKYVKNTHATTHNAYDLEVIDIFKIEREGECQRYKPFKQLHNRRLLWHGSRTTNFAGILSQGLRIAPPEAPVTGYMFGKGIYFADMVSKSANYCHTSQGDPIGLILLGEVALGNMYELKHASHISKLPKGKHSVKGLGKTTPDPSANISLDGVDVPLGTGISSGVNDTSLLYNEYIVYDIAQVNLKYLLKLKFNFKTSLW

PARP1 = target: T1, PARP1 (Homo sapiens, UniProt P09874); assay: PARP trapping assay (chromatin-bound PARP1); format: cell-based; details: BR cells, 10 μM PD173074, 100 nM talazoparib, MMS
T1 construct: endogenous in cells; host or cells: SUM149-derived talazoparib-resistant (BR) cells
T1 sequence (P09874 whole entry): as the sequence (P09874 whole entry, looked up) above

FGFR3 = target: T2, FGFR3 (Homo sapiens, UniProt P22607); assay: Western blot of FGFR phosphorylation in cells treated with MMS and talazoparib; format: cell-based; details: BR# 09 and BR# 17 cells; 5 μM FGFRi
T2 construct: endogenous in cells; host or cells: SUM149 parental cells and SUM149-derived talazoparib-resistant BR cells (BR#09, BR#17)
T2 sequence (P22607 23-806): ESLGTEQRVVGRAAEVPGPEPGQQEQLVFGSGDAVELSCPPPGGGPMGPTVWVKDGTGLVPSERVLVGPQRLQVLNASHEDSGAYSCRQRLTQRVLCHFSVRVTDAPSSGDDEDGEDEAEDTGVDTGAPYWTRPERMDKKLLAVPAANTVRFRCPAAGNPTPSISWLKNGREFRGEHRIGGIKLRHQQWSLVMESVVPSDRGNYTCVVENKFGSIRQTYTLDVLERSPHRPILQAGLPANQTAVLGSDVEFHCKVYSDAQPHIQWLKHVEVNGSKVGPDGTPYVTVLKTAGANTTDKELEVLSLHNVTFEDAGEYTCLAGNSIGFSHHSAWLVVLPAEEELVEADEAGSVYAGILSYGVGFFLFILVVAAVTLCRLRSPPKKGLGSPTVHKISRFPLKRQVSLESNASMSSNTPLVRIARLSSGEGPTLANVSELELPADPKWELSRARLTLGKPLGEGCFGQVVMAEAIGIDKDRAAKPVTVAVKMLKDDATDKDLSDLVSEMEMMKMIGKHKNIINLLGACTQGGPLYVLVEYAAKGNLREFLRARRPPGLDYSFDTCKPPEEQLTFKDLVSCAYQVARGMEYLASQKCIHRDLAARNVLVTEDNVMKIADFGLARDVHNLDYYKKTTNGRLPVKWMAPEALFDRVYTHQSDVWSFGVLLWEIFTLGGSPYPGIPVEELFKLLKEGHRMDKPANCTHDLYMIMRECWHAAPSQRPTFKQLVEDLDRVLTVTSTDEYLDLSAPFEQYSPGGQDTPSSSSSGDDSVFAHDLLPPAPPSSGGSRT
Protocol: (FIG. 8B) BR# 17 cells were treated with 250 nM talazoparib and 0.01% MMS and FGFRi for 1 hour before being fixed and subjected to immunofluorescence staining with antibodies against FGFR3 (TexasRed, red) and yH2AX (FITC, green).

p-Y158 PARP1 = assay: Western blot of Y158-phosphorylated PARP1 in BR cells; format: cell-based
Description: FIGS. 3A-3E: FGFR3 mediates PARP inhibitor resistance by phosphorylating PARP1 at Y158 residue. (FIG. 3A) Proximity ligation assay (PLA) signals of FGFR3 and PARP1 (red), phalloidin (green), and DNA (blue) were merged in representative images of the treatment indicated (MMS, methyl methanesulfonate; Tala, talazoparib; PD, PD173074; BR, SUM149-derived talazoparib-resistant cells). Mean ±95% confidence interval PLA signals in each cell nucleus are shown in the histograms (n >100). *p <0.05; ***p <0.001; n.s., not significant. (FIG. 3B) Cell survival of BR cells with PARP1 knockdown expressing hemagglutinin-tagged vector control (Neo), wild-type PARP1 (WT), or PARP1^Y158F (Y158F) mutant in response to talazoparib, measured by MTT assay (mean ±standard deviation; n >3). (FIG. 3C) BR# 17 cells were treated with MMS, talazoparib, and PD173074 as indicated for Western blot analysis. (FIG. 3D) Combination index (CI) of talazoparib and PD173074 in BR# 17 cells expressing PARP1^WT or PARP1^Y158F measured by MTT assay. (FIG. 3E) Cells were harvested at different time points after 40 minutes of treatment with talazoparib and MMS. […]
The precipitated protein complex was then washed and subjected to Western blot analysis performed as described previously (Chen, et al., 2019). Signals were detected using the ImageQuant 4000 system (GE Healthcare) and quantified using Image Studio Lite.

| Compound | tumor growth (BR# 17 cells [1]) | tumor growth (BR# 09 cells) | resistance of HCC1806-BR cells compared with HCC1806 parental cells (HCC1806-BR cells) | cross-resistance of BR cells to PARPi [4] | also measured |
| --- | --- | --- | --- | --- | --- |
| Cn1ncnc1[C@H]1c2n[nH]c(=O)c3cc(F)cc(c23)N[C@@H]1c1ccc(F)cc1 [talazoparib] | did not inhibit tumor growth | did not inhibit tumor growth | more resistant | – | half-maximal inhibitory concentration in BR cells relative to parental cells [2]: more than 100 fold; FGFR3 phosphorylation in tumors (BR# 09 cells; tumors harvested after 3 days of treatment, talazoparib alone): induced; yH2AX foci at 8 hours compared with 4 hours (BR# 17 cells [3]): significantly decreased; half-maximal inhibitory concentration in BR cells relative to parental cells ([4]; MTT assays, BR cells vs SUM149 parental cells): more than 100 fold; increase in resistance to talazoparib on PARP1 knockdown ([4]; SUM149, BR# 09 and BR# 17 cells with shPARP1 vs non-targeting shRNA control): ≥ 10 fold |
| AZD4547 | inhibited tumor growth | not | – | – | – |
| CNCc1ccc(-c2[nH]c3cc(F)cc4c3c2CCNC4=O)cc1 [rucaparib] | – | – | more resistant | cross-resistance | – |
| activated FGFR kinase domain | – | – | – | – | tyrosine phosphorylation in in vitro kinase assay (Western blot with anti-phospho-tyrosine antibodies; mass spectrum analysis) [5]: FGFR can phosphorylate PARP1 at tyrosine (Y)158 and Y176 amino acids |
| C[C@]1(c2nc3c(C(N)=O)cccc3[nH]2)CCCN1 [veliparib] | – | – | – | cross-resistance | – |
| CCN(CC)CCCCNc1ncc2cc(-c3cc(OC)cc(OC)c3)c(NC(=O)NC(C)(C)C)nc2n1 [PD173074] | did not inhibit tumor growth | did not inhibit tumor growth | – | – | talazoparib-induced PARP1 trapping (PARP1): prolong; FGFR phosphorylation in response to MMS and talazoparib (FGFR3): inhibited; body weight (BR# 09 cells; BR xenograft mouse models, PD173074 15 mg/kg per day, alone or with talazoparib 0.25 mg/kg per day, long-term treatment): no loss of body weight; talazoparib-induced FGFR phosphorylation in tumors (BR# 09 cells; PD173074 10 mg/kg per day): inhibited; talazoparib-induced FGFR phosphorylation in tumors (BR# 09 cells; PD173074 20 mg/kg per day): less than the basal levels; yH2AX foci at 8 hours compared with 4 hours (BR# 17 cells [3]): significantly decreased; p-Y158 PARP1 level (p-Y158 PARP1): diminished |
| O=C(c1cc(Cc2n[nH]c(=O)c3ccccc23)ccc1F)N1CCN(C(=O)C2CC2)CC1 [olaparib] | did not inhibit tumor growth | did not inhibit tumor growth | more resistant | cross-resistance | – |
